Columns and labels:
Experiment in all cases: relative viability (nuclei count vs DMSO), 5 days (fraction); higher = more cells survive
Halofuginone + AZD7762 = compound: O=C(C[C@H]1NCCC[C@@H]1O)Cn1cnc2cc(Br)c(Cl)cc2c1=O (racemic) [Halofuginone] + NC(=O)Nc1cc(-c2cccc(F)c2)sc1C(=O)N[C@H]1CCCNC1 [AZD7762] (partner 0.2 µM)
Method in brief: (§1)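 One day after seeding in 1536-well plates, lung cancer cell lines were dosed by pin tool. Dosing was either single-drug or a fixed anchor-drug dose plus five library-drug doses (not always all listed) in √10 steps. After 5 days, nuclei were stained in one fix-and-stain step and counted on 4× images, and relative viability is the nuclei count of treated wells over that of vehicle wells, given as the median of duplicate plates.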

Cediranib + Luminespib = compound: COc1cc2c(Oc3ccc4[nH]c(C)cc4c3F)ncnc2cc1OCCCN1CCCC1 [Cediranib] + CCNC(=O)c1noc(-c2cc(C(C)C)c(O)cc2O)c1-c1ccc(CN2CCOCC2)cc1 [Luminespib] (partner 0.01 µM)
Method in brief: as §1

[1] = compound: O=C(C[C@H]1NCCC[C@@H]1O)Cn1cnc2cc(Br)c(Cl)cc2c1=O (racemic) [Halofuginone] + CC(=O)Nc1cccc(-n2c(=O)n(C3CC3)c(=O)c3c(Nc4ccc(I)cc4F)n(C)c(=O)c(C)c32)c1 [Trametinib] (partner 0.02 µM)
Method in brief: as §1

Cediranib + Pictilisib = compound: COc1cc2c(Oc3ccc4[nH]c(C)cc4c3F)ncnc2cc1OCCCN1CCCC1 [Cediranib] + CS(=O)(=O)N1CCN(Cc2cc3nc(-c4cccc5[nH]ncc45)nc(N4CCOCC4)c3s2)CC1 [Pictilisib] (partner 1 µM)
Method in brief: as §1

| Cell Line | relative viability (Halofuginone + AZD7762; first compound 0.001 µM) | relative viability (Halofuginone + AZD7762; first compound 0.003162 µM) | relative viability (Halofuginone + AZD7762; first compound 0.01 µM) | relative viability (Halofuginone + AZD7762; first compound 0.03162 µM) | relative viability (Halofuginone + AZD7762; first compound 0.1 µM) | relative viability (Cediranib + Luminespib; first compound 0.04 µM) | relative viability (Cediranib + Luminespib; first compound 0.1265 µM) | relative viability (Cediranib + Luminespib; first compound 0.4 µM) | relative viability (Cediranib + Luminespib; first compound 1.265 µM) | relative viability (Cediranib + Luminespib; first compound 4 µM) | relative viability ([1]; first compound 0.001 µM) | relative viability ([1]; first compound 0.003162 µM) | relative viability ([1]; first compound 0.01 µM) | relative viability ([1]; first compound 0.03162 µM) | relative viability ([1]; first compound 0.1 µM) | relative viability (Cediranib + Pictilisib; first compound 0.04 µM) | relative viability (Cediranib + Pictilisib; first compound 0.1265 µM) | relative viability (Cediranib + Pictilisib; first compound 0.4 µM) | relative viability (Cediranib + Pictilisib; first compound 1.265 µM) | relative viability (Cediranib + Pictilisib; first compound 4 µM) |
| --- | --- | --- | --- | --- | --- | --- | --- | --- | --- | --- | --- | --- | --- | --- | --- | --- | --- | --- | --- | --- |
| NCI-H1915 | 0.7 | 0.682 | 0.736 | 0.656 | 0.68 | 0.972 | 0.759 | 0.787 | 0.813 | 0.875 | 0.319 | 0.291 | 0.28 | 0.297 | 0.262 | 0.874 | 0.722 | 0.87 | 0.837 | 1.04 |
| NCI-H1734 | 0.558 | 0.619 | 0.52 | 0.576 | 0.269 | 0.238 | 0.185 | 0.208 | 0.208 | 0.176 | 0.68 | 0.721 | 0.733 | 0.602 | 0.171 | 0.457 | 0.541 | 0.54 | 0.365 | 0.47 |
| HCC-15 | 1.19 | 1.26 | 1 | 1.18 | 1.2 | 0.188 | – | 0.261 | 0.225 | 0.425 | 0.415 | 0.412 | 0.399 | 0.368 | 0.31 | 0.602 | – | 0.699 | 0.686 | 0.987 |
| NCI-H1355 | 0.801 | 0.81 | 0.688 | 0.73 | 0.616 | 0.739 | 0.871 | 0.686 | 0.813 | 0.719 | 0.481 | 0.429 | 0.4 | 0.415 | 0.4 | 0.392 | 0.273 | 0.41 | 0.263 | 0.476 |
| LU99A | 0.323 | 0.347 | 0.384 | 0.327 | 0.346 | 0.301 | 0.255 | 0.252 | 0.269 | 0.256 | 0.554 | 0.598 | 0.545 | 0.589 | 0.536 | 0.354 | – | 0.314 | 0.276 | 0.36 |
| LCLC-97TM1 | 0.33 | 0.18 | 0.211 | 0.22 | 0.237 | 0.918 | 0.776 | 0.787 | 0.771 | 0.842 | 0.241 | 0.192 | 0.187 | 0.185 | 0.173 | 0.174 | – | 0.168 | 0.122 | 0.248 |
| LC-2-ad | 0.841 | 0.878 | 0.831 | 0.885 | 0.576 | 1.05 | 1.06 | 0.99 | 1.08 | 0.772 | 0.897 | 0.988 | 0.936 | 0.917 | 0.701 | 0.655 | 0.567 | 0.411 | 0.395 | 0.201 |
| NCI-H1395 | 0.385 | 0.39 | 0.372 | 0.385 | 0.41 | 0.787 | 0.569 | 0.734 | 0.754 | 0.535 | 0.95 | 1.03 | 0.912 | 0.889 | 0.746 | 0.58 | – | 0.593 | 0.557 | 0.591 |
| NCI-H1944 | 0.524 | 0.446 | 0.544 | 0.669 | 0.381 | 0.767 | 0.796 | 0.741 | 0.72 | 0.963 | 0.394 | 0.437 | 0.417 | 0.43 | 0.355 | 0.33 | 0.494 | 0.328 | 0.297 | 0.328 |
| HOP-62 | 0.573 | 0.676 | 0.47 | 0.599 | 0.327 | 1.01 | – | 0.79 | 0.949 | 0.94 | 0.419 | 0.407 | 0.383 | 0.411 | 0.235 | 0.813 | – | 0.578 | 0.413 | 1.16 |
| NCI-H2347 | 0.673 | 0.745 | 0.681 | 0.822 | 0.538 | 0.321 | 0.404 | 0.637 | 0.506 | 0.747 | 0.256 | 0.284 | 0.289 | 0.258 | 0.253 | 0.592 | – | 0.742 | 0.516 | 0.444 |
| NCI-H2087 | 1.42 | 1.48 | 1.33 | 1.48 | 1.01 | 0.194 | 0.191 | 0.191 | 0.136 | 0.144 | 0.219 | 0.213 | 0.222 | 0.197 | 0.156 | 0.921 | 0.763 | 0.825 | 0.752 | 0.935 |
| EPLC-272H | 0.208 | 0.0783 | 0.216 | 0.215 | 0.19 | 0.32 | – | 0.243 | – | 0.228 | 0.312 | 0.273 | 0.285 | 0.326 | 0.247 | 0.322 | – | 0.346 | 0.305 | 0.248 |
| LXF-289 | 1.08 | 1.17 | 1.02 | 1.12 | 1.01 | 0.719 | 0.52 | 0.587 | 0.7 | 0.55 | 0.688 | 0.717 | 0.66 | 0.707 | 0.676 | 0.815 | 0.783 | 0.729 | 0.779 | 0.819 |
| RERF-LC-KJ | 1.1 | 1.15 | 1.05 | 0.96 | 0.956 | 1.39 | 1.15 | 1.27 | 1.25 | 1.25 | 0.924 | 0.984 | 0.837 | 0.824 | 0.591 | 0.526 | 0.573 | 0.516 | 0.461 | 0.431 |
| NCI-H1755 | 0.442 | 0.407 | 0.469 | 0.399 | 0.303 | 0.556 | 0.419 | 0.403 | 0.232 | 0.467 | 0.793 | 0.786 | 0.745 | 0.774 | 0.765 | 0.329 | 0.349 | 0.415 | 0.392 | 0.396 |

Reference: the supplement of paper PMC10307832
